Measurements: patent US12582654B2, “Cyano-substituted pyridine and cyano-substituted pyrimidine compound and preparation method therefor and application thereof” (BEIJING SCITECH-MQ PHARMACEUTICALS LIMITED, priority 2019, dated 2026)

Legend:
FGFR4 V550L kinase = FGFR4 V550L kinase (Homo sapiens, UniProt P22455, V550L); experiment: Inhibition of FGFR4 V550L mutant kinase activity (ULight-labeled PolyGT, EU665/EU615 reading); assay type: biochemical; conditions: FGFR4 V550L kinase 1 nM, ATP 10 μM, enzymatic reaction 2 hours
Experimental: (§1) Assay of activity of small molecule compounds on inhibiting FGFR4 kinase and FGFR4 V550L mutant kinase. The assay method was as follows:
(§2) 1) Dilution of Compounds:
(§3) In a 96-well plate a, the compounds were serially diluted 3-fold with DMSO to form 11 concentrations, and the 12th concentration was pure DMSO (as a positive control); In a new 96-well plate b, the above solutions were diluted 25-fold with ultrapure water (DMSO concentration was 4%).
(§4) 2) Transferring Compounds to a 384-Well Plate:
(§5) The above solutions of compounds diluted with ultrapure water in the 96-well plate b were pipetted into corresponding wells of a 384-well plate.
(§6) 3) Adding 4× kinase solution: 2.5 μl of the above 4× kinase solutions were pipetted with a multi-channel pipette into corresponding reaction wells of the 384-well plate, and the mixture was mixed well and pre-reacted at room temperature for 5 minutes.
(§7) 4) Adding 2× substrate/ATP mixture: 5 μl of the above 2× substrate/ATP mixtures were pipetted with a multi-channel pipette into corresponding reaction wells of the 384-well plate.
(§8) 5) Negative control: negative control wells were set up in the 384-well plate by adding 2.5 μl of 4× substrate, 2.5 μl of 4× enzyme solution, 2.5 μl of 1× kinase Assay Buffer and 2.5 μl of ultrapure water containing 4% DMSO to each well.
(§9) 6) Centrifuging, mixing well, and reacting at room temperature in the dark for 2 hours.
(§10) 7) Terminating the Enzymatic Reaction:
(§11) 5 μl of the above 4× stop solutions were pipetted into corresponding wells of the 384-well plate, and the mixture was centrifuged, mixed well, and then reacted at room temperature for 5 minutes.
(§12) 8) Development of the Reaction:
(§13) 5 μl of the above 4× detection solutions were pipetted into corresponding wells of the 384-well plate, and the mixture was centrifuged, mixed well, and then reacted at room temperature for 1 hour.
(§14) 9) The 384-well plate was placed into a plate reader, and the signal was detected using the appropriate program.
(§15) 10) Analysis of IC50: Reading of well=10000*EU665 value/EU615 value Inhibition rate=(reading of positive control well−reading of assay well)/(reading of positive control well−reading of negative control well)*100%
(§16) The corresponding IC50 can be calculated by inputting the drug concentrations and corresponding inhibition rates into GraphPad Prism 5 and processing.
Assay Conditions for Screening FGFR4 V550L Kinase Activity Inhibitory Molecule:
The final concentration of FGFR4 V550L kinase in the reaction system was 1 nM, the final concentration of ATP was 10 μM, the final concentration of substrate ULight™-labeled PolyGT was 100 nM, and the time for enzymatic reaction was 2 hours.
The highest final concentration of the compound in the reaction system was 2.5 μM. After seral 3-fold dilution, there were 11 concentrations in total, and the lowest final concentration was 0.042 nM. The final concentration of DMSO was 1%.

Ba/F3 ETV6-FGFR4 cells = target: T1, Ba/F3 ETV6-FGFR4 cells (Homo sapiens, UniProt P22455); experiment: Inhibition of cell proliferation (CCK-8), Ba/F3 ETV6-FGFR4 cells; assay type: cell-based; conditions: 72 hours of incubation, read-out: Ba/F3 ETV6-FGFR4 IC50
T1 construct: fused on or other part: N-terminal part of ETV6 (TEL), the oligomerising partner that makes the FGFR4 kinase constitutively active; P41212 (Transcription factor ETV6)
Experimental: (§17) Compounds were assayed for inhibiting cell proliferation, and the specific method was as follows: • 1. Cells were cultured to a logarithmic growth phase, pipetted evenly, transferred to a 15 mL centrifuge tube, and centrifuged at 1000 rpm at room temperature for 4 minutes; • 2. The supernatant was discarded; 5 mL of complete medium was added and pipetted evenly; 10 μL of cell suspension was weighed, mixed well with 10 μL of 0.4% trypan blue, and counted under a cell counter; the proportion of living cells was ensured to be above 90%; • 3. The cell suspension was seeded into a 96-well plate (80 μL of cell suspension per well) according to the conditions shown in Table 5; in the outer 36 wells of the 96-well plate, no cells were added but only sterile water was added; only the inner 60 wells were used for cell assay and control; • 4. 5× compound dilution: the compounds were serially diluted 4-fold to give a total of 9 concentrations; 80-fold overall dilution was completed with complete medium, the resulting concentration was 5 times the final drug concentration, and DMSO concentration was 1.25%; • 5. 20 μL of the corresponding compounds with different concentrations were added to each well of assay wells of the 96-well plate; 20 μL of complete medium was added to positive and negative control wells and shaken well; and the final concentration of DMSO in each well was 0.25%; • 6. After 72 hours of incubation, 10 μL of CCK-8 reagent was added to each well and further incubated at 37° C. for 1-2 hours; and the OD value was read at 450 nm; 7. Cell survival rate (%)=[(As−Ab)/(Ac−Ab)]*100% • As: Assay well (medium containing cells, CCK-8, compound) • Ac: Control well (medium containing cells, CCK-8) • Ab: Blank well (medium without cell and compound, CCK-8) • 8. The values were imported into Graphpad Prism 5 software for IC50 calculation.

[1] = target: T2, Ba/F3 ETV6-FGFR4-V550L cells (Homo sapiens, UniProt P22455, V550L, cells depend on it); experiment: Inhibition of cell proliferation (CCK-8), Ba/F3 ETV6-FGFR4-V550L cells; assay type: cell-based; conditions: 72 hours of incubation, read-out: Ba/F3 ETV6-FGFR4-V550L IC50
T2 construct: fused on or other part: N-terminal part of ETV6 (TEL), the oligomerising partner of the fusion; already named as the first entry; P41212 (Transcription factor ETV6)
Experimental: as §17

FGFR4 kinase = FGFR4 kinase (Homo sapiens, UniProt P22455); experiment: Inhibition of FGFR4 kinase activity (ULight-labeled JAK-1 peptide, EU665/EU615 reading); assay type: biochemical; conditions: FGFR4 kinase 3.85 nM, ATP 100 μM, enzymatic reaction 2 hours
Experimental: as §1, §2, §3, §4, §5, §6, §7, §8, §9, §10, §11, §12, §13, §14, §15, §16
Assay Conditions for Screening FGFR4 Kinase Activity Inhibitory Molecule:
The final concentration of FGFR4 kinase in the reaction system was 3.85 nM, the final concentration of ATP was 100 μM, the final concentration of substrate ULight™-labeled JAK-1 (Tyr1023) Peptide was 100 nM, and the time for enzymatic reaction was 2 hours.
The highest final concentration of the compound in the reaction system was 2.5 μM. After serial 3-fold dilution, there were 11 concentrations in total, and the lowest final concentration was 0.042 nM. The final concentration of DMSO was 1%.

Chain of FGFR4 kinase (P22455 22-802): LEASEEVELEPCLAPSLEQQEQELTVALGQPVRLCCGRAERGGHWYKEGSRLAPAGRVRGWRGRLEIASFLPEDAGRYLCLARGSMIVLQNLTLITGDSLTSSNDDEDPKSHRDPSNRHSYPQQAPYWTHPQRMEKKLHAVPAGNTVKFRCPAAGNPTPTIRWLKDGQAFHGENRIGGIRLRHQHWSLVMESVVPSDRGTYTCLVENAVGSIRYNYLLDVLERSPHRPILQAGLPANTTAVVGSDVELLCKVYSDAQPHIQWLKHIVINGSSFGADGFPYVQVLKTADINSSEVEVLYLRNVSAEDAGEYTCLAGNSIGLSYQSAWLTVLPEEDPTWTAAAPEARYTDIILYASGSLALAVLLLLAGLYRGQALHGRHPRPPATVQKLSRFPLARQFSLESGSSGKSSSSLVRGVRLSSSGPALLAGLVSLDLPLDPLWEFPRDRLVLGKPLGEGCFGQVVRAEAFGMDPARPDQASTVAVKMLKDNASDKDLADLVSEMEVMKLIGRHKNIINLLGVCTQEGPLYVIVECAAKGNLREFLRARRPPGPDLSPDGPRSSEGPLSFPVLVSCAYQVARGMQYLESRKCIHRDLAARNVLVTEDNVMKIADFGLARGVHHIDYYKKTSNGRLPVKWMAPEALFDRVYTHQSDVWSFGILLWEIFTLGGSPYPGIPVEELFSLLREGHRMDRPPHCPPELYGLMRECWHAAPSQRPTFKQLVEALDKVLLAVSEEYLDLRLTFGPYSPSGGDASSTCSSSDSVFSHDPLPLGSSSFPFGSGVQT
Chain of FGFR4 V550L kinase (P22455 22-802 V550L): as the sequence (P22455 22-802) above, with V529L counted along it
T2 sequence (P22455 whole entry V550L, the tested form may be a part): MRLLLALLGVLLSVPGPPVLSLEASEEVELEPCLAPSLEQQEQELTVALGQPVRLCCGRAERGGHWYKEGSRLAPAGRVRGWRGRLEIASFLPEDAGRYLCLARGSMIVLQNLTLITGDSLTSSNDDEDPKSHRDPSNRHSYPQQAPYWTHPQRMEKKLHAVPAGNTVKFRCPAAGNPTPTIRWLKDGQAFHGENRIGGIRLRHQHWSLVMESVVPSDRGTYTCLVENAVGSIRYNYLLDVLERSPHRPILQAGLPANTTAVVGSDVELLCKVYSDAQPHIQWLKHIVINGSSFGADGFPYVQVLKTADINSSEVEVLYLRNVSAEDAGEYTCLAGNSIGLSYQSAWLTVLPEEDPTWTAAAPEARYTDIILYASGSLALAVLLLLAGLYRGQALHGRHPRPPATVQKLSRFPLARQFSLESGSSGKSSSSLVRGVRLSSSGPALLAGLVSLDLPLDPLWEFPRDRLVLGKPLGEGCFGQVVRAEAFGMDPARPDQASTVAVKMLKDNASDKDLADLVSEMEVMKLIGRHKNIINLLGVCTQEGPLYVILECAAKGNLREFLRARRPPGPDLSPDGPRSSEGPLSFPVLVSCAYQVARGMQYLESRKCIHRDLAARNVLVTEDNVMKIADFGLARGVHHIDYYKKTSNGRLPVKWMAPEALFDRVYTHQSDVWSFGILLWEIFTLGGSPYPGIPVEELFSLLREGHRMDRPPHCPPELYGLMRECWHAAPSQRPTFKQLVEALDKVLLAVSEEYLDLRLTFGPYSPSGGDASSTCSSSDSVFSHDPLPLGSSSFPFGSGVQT
T1 sequence (P22455 whole entry, change not shown, the tested form may be a part): as the sequence (P22455 whole entry V550L, the tested form may be a part) above, with L550V counted along it

| Structure (SMILES) | IC50 (FGFR4 V550L kinase) | GI50 (Ba/F3 ETV6-FGFR4 cells) | GI50 [1] | IC50 (FGFR4 kinase) |
| --- | --- | --- | --- | --- |
| C=CC(=O)Nc1cc(N2CCN(CC)CC2)ccc1Nc1ncc(C#N)c(Nc2cc(C(F)(F)F)ccc2OC(C)C)n1 [Example 26, N-(2-((5-cyano-4-((2-isopropoxy-5-(trifluoromethyl)phenyl)amino)pyrimidin-2-yl)amino)-5-(4-ethylpiperazin-1-yl)phenyl) acrylamide] | 100 to 1000 nM | 100 to 1000 nM | 100 to 1000 nM | 100 to 1000 nM |
| C=CC(=O)Nc1cc(N2CCN(CC)CC2)c(F)cc1Nc1ncc(C#N)c(Nc2ccccc2OC(C)C)n1 [Example 15, N-(2-((5-cyano-4-((2-isopropoxyphenyl)amino)pyrimidin-2-yl)amino)-5-(4-ethylpiperazin-1-yl)-4-fluorophenyl) acrylamide] | 10 to 50 nM | ≤ 10 nM | ≤ 10 nM | 50 to 100 nM |
| C=CC(=O)Nc1cc(N2CCN(CC)CC2)ccc1Nc1ncc(C#N)c(Nc2ccc(C#N)cc2OC(C)C)n1 [Example 32, N-(2-((5-cyano-4-((4-cyano-2-isopropoxyphenyl)amino)pyrimidin-2-yl)amino)-5-(4-ethylpiperazin-1-yl)phenyl) acrylamide] | 10 to 50 nM | ≤ 10 nM | 10 to 50 nM | – |
| C=CC(=O)Nc1cc(N2CCC(N(C)C)CC2)ccc1Nc1cc(Nc2ccccc2OC(C)C)c(C#N)cn1 [Example 82, N-(2-((5-cyano-4-((2-isopropoxyphenyl)amino)pyridin-2-yl)amino)-5-(4-(dimethylamino)piperidin-1-yl)phenyl)acrylamide] | – | – | – | 10 to 50 nM |
| C=CC(=O)Nc1cc(N2CCN(CC)CC2)ccc1Nc1cc(Nc2ccccc2OC(C)C)c(C#N)cn1 [Example 84, N-(2-((5-cyano-4-((2-isopropoxyphenyl)amino)pyridin-2-yl)amino)-5-(4-ethylpiperazin-1-yl)phenyl)acrylamide] | – | – | – | 10 to 50 nM |
| C=CC(=O)Nc1cc(N2CCC(N3CCOCC3)CC2)c(C)cc1Nc1ncc(C#N)c(Nc2ccccc2OC(C)C)n1 [Example 12, N-(2-((5-cyano-4-((2-isopropoxyphenyl)amino)pyrimidin-2-yl)amino)-4-methyl-5-(4-morpholinopiperidin-1-yl)phenyl) acrylamide] | 10 to 50 nM | – | – | 10 to 50 nM |
| C=CC(=O)Nc1cc(N2CCC(N(C)C)CC2)c(C)cc1Nc1ncc(C#N)c(Nc2ccccc2OC(C)C)n1 [Example 9, N-(2-((5-cyano-4-((2-isopropoxyphenyl)amino)pyrimidin-2-yl)amino)-5-(4-(dimethylamino)piperidin-1-yl)-4-methylphenyl) acrylamide] | 10 to 50 nM | – | – | 10 to 50 nM |
| C=CC(=O)Nc1cc(N2CCC(N3CCCCC3)CC2)c(C)cc1Nc1ncc(C#N)c(Nc2ccccc2OC(C)C)n1 [Example 11, N-(5-([1,4‘- bipiperidin]-1′-yl)-2-((5-cyano-4-((2-isopropoxyphenyl)amino)pyrimidin-2-yl)amino)-4-methylphenyl) acrylamide] | – | 10 to 50 nM | 10 to 50 nM | 10 to 50 nM |

Further lines, results first:

| IC50 (FGFR4 V550L kinase) | GI50 (Ba/F3 ETV6-FGFR4 cells) | GI50 [1] | IC50 (FGFR4 kinase) | Structure (SMILES) |
| --- | --- | --- | --- | --- |
| 10 to 50 nM | ≤ 10 nM | 10 to 50 nM | 10 to 50 nM | C=CC(=O)Nc1cc(N2CCN(CC)CC2)ccc1Nc1ncc(C#N)c(Nc2c(F)cccc2OC(C)C)n1 [Example 21, N-(2-((5-cyano-4-((2-fluoro-6-isopropoxyphenyl)amino)pyrimidin-2-yl)amino)-5-(4-ethylpiperazin-1-yl)phenyl) acrylamide] |
| ≤ 10 nM | ≤ 10 nM | ≤ 10 nM | 10 to 50 nM | C=CC(=O)Nc1cc(N2CCC(N3CCN(CCO)CC3)CC2)ccc1Nc1ncc(C#N)c(Nc2ccccc2OC(C)C)n1 [Example 59, N-(2-((5-cyano-4-((2-isopropoxyphenyl)amino)pyrimidin-2-yl)amino)-5-(4-(4-(2-hydroxyethyl)piperazin-1-yl)piperidin-1-yl)phenyl) acrylamide] |
| – | – | – | 10 to 50 nM | C=CC(=O)Nc1cc(N2CCC(N3CCN(C)CC3)CC2)ccc1Nc1cc(Nc2ccccc2OC(C)C)c(C#N)cn1 [Example 83, N-(2-((5-cyano-4-((2-isopropoxyphenyl)amino)pyridin-2-yl)amino)-5-(4-(4-methylpiperazin-1-yl)piperidin-1-yl)phenyl)acrylamide] |
| ≤ 10 nM | ≤ 10 nM | ≤ 10 nM | 10 to 50 nM | C=CC(=O)Nc1cc(N2CCC(N(C)CCN(C)C)CC2)ccc1Nc1ncc(C#N)c(Nc2ccccc2OC(C)C)n1 [Example 57, N-(2-((5-cyano-4-((2-isopropoxyphenyl)amino)pyrimidin-2-yl)amino)-5-(4-((2-(dimethylamino)ethyl)(methyl)amino)piperidin-1-yl)phenyl) acrylamide] |
| ≤ 10 nM | ≤ 10 nM | ≤ 10 nM | ≤ 10 nM | C=CC(=O)Nc1cc(N2CCC(N3CCN(C)CC3)CC2)ccc1Nc1ncc(C#N)c(Nc2ccccc2OC(C)C)n1 [Example 6, N-(2-((5-cyano-4-((2-isopropoxyphenyl)amino)pyrimidin-2-yl)amino)-5-(4-(4-methylpiperazin-1-yl)piperidin-1-yl)phenyl) acrylamide] |
| ≤ 10 nM | ≤ 10 nM | ≤ 10 nM | 10 to 50 nM | C=CC(=O)Nc1cc(N2CCN(CC)CC2)c(C)cc1Nc1ncc(C#N)c(Nc2ccccc2OC(C)C)n1 [Example 8, N-(2-((5-cyano-4-((2-isopropoxyphenyl)amino)pyrimidin-2-yl)amino)-5-(4-ethylpiperazin-1-yl)-4-methylphenyl) acrylamide] |
| 10 to 50 nM | ≤ 10 nM | ≤ 10 nM | 10 to 50 nM | C=CC(=O)Nc1cc(N2CCC(N3CCN(C)C(=O)C3)CC2)c(F)cc1Nc1ncc(C#N)c(Nc2ccccc2OC(C)C)n1 [Example 44, N-(2-((5-cyano-4-((2-isopropoxyphenyl)amino)pyrimidin-2-yl)amino)-4-fluoro-5-(4-(4-methyl-3-oxopiperazin-1-yl)piperidin-1-yl)phenyl) acrylamide] |
